# Assay results from patent US10676431B2, “Phenylpyrrolidinone formyl peptide 2 receptor agonists” (BRISTOL-MYERS SQUIBB COMPANY, priority 2018, dated 2020).
# pEC50: −log10 of the molar value.
# Legend:
# human FPR1 = human FPR1 (Homo sapiens (Human), UniProt P21462); test: FPR1 cyclic adenosine monophosphate (cAMP) assay; format: cell-based; conditions: CHO cells overexpressing human FPR1; forskolin 10 μM, IBMX 200 μM; inhibition of cAMP production, HTRF; read-out: hFPR1 cAMP EC50
# Description: FPR2 and FPR1 Cyclic Adenosine Monophosphate (cAMP) Assays. A mixture of forskolin (5 μM final for FPR2 or 10 μM final for FPR1) and IBMX (200 μM final) were added to 384-well Proxiplates (Perkin-Elmer) pre-dotted with test compounds in DMSO (1% final) at final concentrations in the range of 0.020 nM to 100 μM. Chinese Hamster Ovary cells (CHO) overexpressing human FPR1 or human FPR2 receptors were cultured in F-12 (Ham's) medium supplemented with 10% qualified FBS, 250 μg/ml zeocin and 300 μg/ml hygromycin (Life Technologies). Reactions were initiated by adding 2,000 human FPR2 cells per well or 4,000 human FPR1 cells per well in Dulbecco's PBS (with calcium and magnesium) (Life Technologies) supplemented with 0.1% BSA (Perkin-Elmer). The reaction mixtures were incubated for 30 min at room temperature. The level of intracellular cAMP was determined using the HTRF HiRange cAMP assay reagent kit (Cisbio) according to manufacturer's instruction. Solutions of cryptate conjugated anti-cAMP and d2 fluorophore-labelled cAMP were made in a supplied lysis buffer separately. Upon completion of the reaction, the cells were lysed with equal volume of the d2-cAMP solution and anti-cAMP solution. […] The potency and activity of a compound to inhibit cAMP production was then determined by fitting to a 4-parametric logistic equation from a plot of cAMP level versus compound concentrations.
# human FPR2 = human FPR2 (Homo sapiens (Human), UniProt P25090); test: FPR2 cyclic adenosine monophosphate (cAMP) assay; format: cell-based; conditions: CHO cells overexpressing human FPR2; forskolin 5 μM, IBMX 200 μM; inhibition of cAMP production, HTRF; read-out: hFPR2 cAMP2 EC50
# Description: FPR2 and FPR1 Cyclic Adenosine Monophosphate (cAMP) Assays. A mixture of forskolin (5 μM final for FPR2 or 10 μM final for FPR1) and IBMX (200 μM final) were added to 384-well Proxiplates (Perkin-Elmer) pre-dotted with test compounds in DMSO (1% final) at final concentrations in the range of 0.020 nM to 100 μM. Chinese Hamster Ovary cells (CHO) overexpressing human FPR1 or human FPR2 receptors were cultured in F-12 (Ham's) medium supplemented with 10% qualified FBS, 250 μg/ml zeocin and 300 μg/ml hygromycin (Life Technologies). Reactions were initiated by adding 2,000 human FPR2 cells per well or 4,000 human FPR1 cells per well in Dulbecco's PBS (with calcium and magnesium) (Life Technologies) supplemented with 0.1% BSA (Perkin-Elmer). The reaction mixtures were incubated for 30 min at room temperature. The level of intracellular cAMP was determined using the HTRF HiRange cAMP assay reagent kit (Cisbio) according to manufacturer's instruction. Solutions of cryptate conjugated anti-cAMP and d2 fluorophore-labelled cAMP were made in a supplied lysis buffer separately. Upon completion of the reaction, the cells were lysed with equal volume of the d2-cAMP solution and anti-cAMP solution. After a 1-h room temperature incubation, time-resolved fluorescence intensity was measured using the Envision (Perkin-Elmer) at 400 nm excitation and dual emission at 590 nm and 665 nm. A calibration curve was constructed with an external cAMP standard at concentrations ranging from 1 μM to 0.1 pM by plotting the fluorescent intensity ratio from 665 nm emission to the intensity from the 590 nm emission against cAMP concentrations. The potency and activity of a compound to inhibit cAMP production was then determined by fitting to a 4-parametric logistic equation from a plot of cAMP level versus compound concentrations.
# Sequence of human FPR2 (P25090 whole entry): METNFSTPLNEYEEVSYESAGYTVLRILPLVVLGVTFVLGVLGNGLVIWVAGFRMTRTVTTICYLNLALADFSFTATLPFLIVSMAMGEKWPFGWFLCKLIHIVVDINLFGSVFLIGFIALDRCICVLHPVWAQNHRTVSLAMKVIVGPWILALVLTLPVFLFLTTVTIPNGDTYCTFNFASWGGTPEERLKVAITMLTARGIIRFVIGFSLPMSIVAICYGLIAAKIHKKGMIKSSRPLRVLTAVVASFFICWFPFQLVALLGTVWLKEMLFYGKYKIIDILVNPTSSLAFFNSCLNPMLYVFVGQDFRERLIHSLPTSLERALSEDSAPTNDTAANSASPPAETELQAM
# Sequence of human FPR1 (P21462 whole entry): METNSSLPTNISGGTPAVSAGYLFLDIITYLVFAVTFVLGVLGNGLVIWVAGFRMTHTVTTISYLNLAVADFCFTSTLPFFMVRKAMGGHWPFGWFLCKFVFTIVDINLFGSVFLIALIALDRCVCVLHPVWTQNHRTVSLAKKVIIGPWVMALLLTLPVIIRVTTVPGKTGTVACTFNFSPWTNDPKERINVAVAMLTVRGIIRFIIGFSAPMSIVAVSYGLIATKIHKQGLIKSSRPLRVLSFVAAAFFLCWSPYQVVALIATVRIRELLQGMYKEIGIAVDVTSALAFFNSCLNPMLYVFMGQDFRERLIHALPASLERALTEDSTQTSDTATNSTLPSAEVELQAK
SMILES,pEC50 (human FPR1),pEC50 (human FPR2)
CC1C[C@@H](NC(=O)Nc2ccc(Cl)cc2F)C(=O)N1c1ccc(-c2cccnc2P(C)(C)=O)c(F)c1F (some centres unmarked) [Example 121],8.30,9.52
CS(=O)(=O)Nc1ccccc1-c1ccc(N2CC[C@@H](NC(=O)Nc3ccc(C(F)(F)F)cc3)C2=O)cc1 [Example 14],6.22,8.14
CP(C)(=O)c1ccccc1-c1ccc(N2CC3(CC3)[C@@H](NC(=O)Nc3ccc(Cl)cc3F)C2=O)c(F)c1F [Example 132],7.55,9.32
O=C(Nc1ccc(Cl)cc1F)N[C@@H]1CCN(c2ccc(-c3ccccc3CO)c(F)c2F)C1=O [Example 2],6.44,8.38
O=C(Nc1ccc(Cl)cc1F)N[C@@H]1CCN(c2ccc(-c3cnn(C(F)F)c3)c(F)c2F)C1=O [Example 79],< 5.00,7.41
CP(C)(=O)c1c(F)cccc1-c1ccc(N2CC[C@@H](NC(=O)Nc3ccc(C(F)(F)F)cc3F)C2=O)c(F)c1F [Example 72],7.27,9.21
"CP(C)(=O)c1ccccc1-c1ccc(N2CC[C@@H](NC(=O)Nc3ccc(Cl)cc3F)C2=O)c(C(F)(F)F)c1F [Example 91, (R)-1-(4-Chloro-2-fluorophenyl)-3-(1-(2′-(dimethylphosphoryl)-2-fluoro-3-(trifluoromethyl)-[1,1′-biphenyl]-4-yl)-2-oxopyrrolidin-3-yl)urea]",6.70,8.24
CC(C)c1cc(-c2ccccc2NS(C)(=O)=O)ccc1N1CC[C@@H](NC(=O)Nc2ccc(C(F)(F)F)cc2F)C1=O [Example 37],6.77,8.85
CP(C)(=O)c1ccccc1-c1ccc(N2CC[C@@H](NC(=O)Nc3ncc(C(F)(F)F)cc3F)C2=O)c(F)c1F [Example 55],< 5.00,7.66
Cn1ccc(-c2ccc(N3CC[C@@H](NC(=O)Nc4ccc(Cl)cc4F)C3=O)c(F)c2F)n1 [Example 28],6.26,8.01
CP(C)(=O)c1ccccc1-c1ccc(N2CC[C@@H](NC(=O)Nc3ccc(OC(F)(F)F)cc3)C2=O)c(F)c1F [Example 51],5.89,8.09
CC1(C)CN(c2ccc(-c3cccnc3P(C)(C)=O)c(F)c2F)C(=O)[C@@H]1NC(=O)Nc1ccc(Cl)cc1F [Example 113],6.23,9.41
O=C(Nc1ccc(C(F)(F)F)cc1F)N[C@@H]1CCN(c2ccc(-c3ccccc3CO)c(F)c2F)C1=O [Example 31],6.37,8.40
CP(C)(=O)c1ccccc1-c1ccc(N2CC(CO)[C@@H](NC(=O)Nc3ccc(Cl)cc3F)C2=O)c(F)c1F (some centres unmarked) [Example 125],6.74,9.00
CP(C)(=O)c1ccccc1-c1ccc(N2CC[C@@H](NC(=O)Nc3ccc(Cl)cc3F)C2=O)c(F)c1Cl [Example 81],7.57,9.28
O=C(Nc1ccc(C(F)(F)F)cc1)N[C@@H]1CCN(c2ccc(-c3ccccc3CO)c(F)c2F)C1=O [Example 41],6.30,8.44
CS(=O)(=O)c1ccccc1-c1ccc(N2C(=O)[C@H](NC(=O)Nc3ccc(Cl)cc3F)C[C@H]2CO)c(F)c1F [Example 42],6.66,9.00
CS(=O)(=O)c1ccccc1-c1cc(F)c(N2CC[C@@H](NC(=O)Nc3ccc(Cl)cc3F)C2=O)c(F)c1 [Example 52],5.96,8.00
CP(C)(=O)c1ccccc1-c1ccc(N2CC[C@@H](NC(=O)Nc3cnc(Cl)cn3)C2=O)c(F)c1F [Example 63],5.36,8.25
CS(=N)(=O)c1ccccc1-c1ccc(N2CC[C@@H](NC(=O)Nc3ccc(C(F)(F)F)cc3F)C2=O)c(F)c1F (some centres unmarked) [Example 66],6.24,8.31
CP(C)(=O)c1ccccc1-c1ccc(N2CC[C@@H](NC(=O)Nc3ccc(C(F)(F)F)cc3F)C2=O)c(Cl)c1Cl [Example 80],7.07,8.85
CS(=O)(=O)Nc1ccccc1-c1ccc(N2CC[C@@H](NC(=O)Nc3ccc(C(F)(F)F)nc3)C2=O)cc1 [Example 20],< 5.00,7.62
CP(C)(=O)c1ncncc1-c1ccc(N2CC[C@@H](NC(=O)Nc3ccc(C(F)(F)F)cc3F)C2=O)c(F)c1F [Example 93],6.11,7.92

# Continued, values first:
pEC50 (human FPR1),pEC50 (human FPR2),SMILES
6.96,8.43,CS(=O)(=O)Nc1ncccc1-c1ccc(N2CC[C@@H](NC(=O)Nc3ccc(Cl)cc3F)C2=O)c(C2CC2)c1 [Example 48]
6.49,7.77,COc1ncccc1-c1ccc(N2CC[C@@H](NC(=O)Nc3ccc(Cl)cc3F)C2=O)c(F)c1F [Example 118]
6.92,7.92,O=C(Nc1ccc(Cl)cc1)N[C@@H]1CCN(c2ccc(-c3ccccc3F)c(F)c2F)C1=O [Example 16]
6.70,7.49,CP(C)(=O)c1ccccc1-c1ccc(N2CC[C@@H](NC(=O)Nc3ccc(Cl)cc3F)C2=O)c(F)c1C(F)F [Example 95]
6.85,8.77,CS(=N)(=O)c1ccccc1-c1ccc(N2CC[C@@H](NC(=O)Nc3ccc(Cl)cc3F)C2=O)c(F)c1F (some centres unmarked) [Example 59]
< 5.00,7.92,CP(C)(=O)c1ccccc1-c1ccc(N2CC(CO)[C@@H](NC(=O)Nc3ccc(Cl)cc3F)C2=O)c(F)c1F (some centres unmarked) [Example 126]
6.11,8.60,O=C(Nc1ccc(Cl)cc1F)N[C@@H]1C[C@@H](CO)N(c2ccc(-c3ccccc3F)c(F)c2F)C1=O [Example 82]
6.04,7.74,CP(C)(=O)c1ccccc1-c1ccc(N2CC(CO)[C@@H](NC(=O)Nc3ccc(Cl)cc3F)C2=O)c(F)c1F (some centres unmarked) [Example 127]
5.82,8.00,CS(=O)(=O)Nc1ccccc1-c1ccc(N2CC[C@@H](NC(=O)Nc3cnc(Cl)cn3)C2=O)c(F)c1F [Example 15]
6.82,9.28,CCP(=O)(CC)c1ccccc1-c1ccc(N2CC[C@@H](NC(=O)Nc3ccc(C(F)(F)F)cc3F)C2=O)c(F)c1F [Example 68]
7.59,8.39,COc1c(-c2ccccc2NS(C)(=O)=O)ccc(N2CC[C@@H](NC(=O)Nc3ccc(Cl)cc3F)C2=O)c1F [Example 34]
6.21,8.20,CS(=N)(=O)c1ccccc1-c1ccc(N2CC[C@@H](NC(=O)Nc3ccc(Cl)cc3F)C2=O)c(F)c1F (some centres unmarked) [Example 58]
5.82,7.48,CC(N)c1cccc(-c2ccc(N3CC[C@@H](NC(=O)Nc4ccc(Cl)cc4)C3=O)c(F)c2F)c1 (some centres unmarked) [Example 22]
5.60,8.19,CS(=O)(=O)Nc1ccccc1-c1ccc(N2CC[C@@H](NC(=O)Nc3ncc(Cl)cc3F)C2=O)c(F)c1F [Example 13]
7.16,8.33,COc1c(N2CC[C@@H](NC(=O)Nc3ccc(Cl)cc3F)C2=O)ccc(-c2ccccc2NS(C)(=O)=O)c1F [Example 36]
5.11,8.12,CP(C)(=O)c1ccccc1-c1ccc(N2CC[C@@H](NC(=O)Nc3ncc(Cl)cc3F)C2=O)c(F)c1F [Example 56]
3.14,8.54,CP(C)(=O)c1ccccc1-c1ccc(N2CC[C@@H](NC(=O)Nc3ccc(Cl)s3)C2=O)c(F)c1F [Example 135]
6.55,8.22,CP(C)(=O)c1ncncc1-c1ccc(N2CC[C@@H](NC(=O)Nc3ccc(Cl)cc3F)C2=O)c(F)c1F [Example 84]
6.19,7.85,CC(N)c1cccc(-c2ccc(N3CC[C@@H](NC(=O)Nc4ccc(Cl)cc4F)C3=O)c(F)c2F)c1 (some centres unmarked) [Example 50]
8.24,7.96,CP(C)(=O)c1ccccc1-c1ccc(N2CC[C@@H](NC(=O)Nc3ccc(Cl)cc3F)C2=O)c(C(F)F)c1F [Example 107]
